# Where a name gives a salt, the structure may show the parent alone. Read-outs that look alike come from different tables or passages of the source.
# Key:
# [1] = assay type: physicochemical
# Procedure: Individual excipients were investigated to determine their compatibility with SDE (at 50° C. for 2 and 4 weeks) for potential use in a topical formulation.
# [2] = Ex vivo skin drug permeation and penetration, MedFlux-HT diffusion cell system; assay type: in vitro ADME, human
# Procedure: The ten formulations listed in Table 7 were used to evaluate the penetration of drug into human skin using the MedFlux-HT™ diffusion cell system. In this study, human skins with about 500±50 μm thickness were fixed on the MedFlux-HT diffusion cell system. About 10 mg of test formulation was applied to the epidermal side of the human skin, and a continued flow of receiver fluid was place at the opposite side of the skin. Because SDE is rapidly converted into nalbuphine by the esterases in the biological environment, both nalbuphine and SDE concentration were measured to access the drug permeation status. The concentration of nalbuphine and SDE in receiver fluid indicated the amount of drug that had penetrated through the human skin.
# Tissue levels of SDE and nalbuphine in the dermis and epidermis, and the amount of SDE and nalbuphine in the receiver fluids over 24 hours were determined and are shown in FIG. 1A and FIG. 1B. SDE and nalbuphine were both detected in receiver fluid, dermis, and epidermis. The cumulative amounts of SDE and nalbuphine in receiver fluid recovered at 24 hours were 89-1978 ng/cm^2 and 169-978 ng/cm^2, respectively.
# These formulations were used to evaluate the penetration of drug into human skin using the MedFlux-HT™ diffusion cell system according to Example 8.
# [3] = system: substance P-induced scratching; assay: Mouse substance P-induced scratching model, subcutaneous SDE; assay type: in vivo; settings: for substance P-induced scratching bouts: SC, 75 mg/mL oily formulation at 10 mL/kg, 30-minute observation
# Procedure: The time-course and antipruritic effects of SDE via subcutaneous (SC) injection were studied in the mouse substance P-induced scratching model to evaluate the effect of SDE's antipruritic effect. In this study, SDE was dissolved in an oily formulation, with a concentration at 75 mg/mL.
# Substance P, the endogenous ligand for the neurokinin-1 (NK-1) receptor, is a significant mediator of pruritus. […] Intradermal injection of substance P elicits an itch sensation in human subjects, and an associated itch response in mice.
# (§1) Compared to the placebo control group, SDE (administered SC at 10 mL/kg) was associated with significant reduction of substance P-induced scratching behaviors at 4 hours (18.8±11.8 bouts) and 12 hours (24.5±4.1 bouts) post treatment. […] However, SC administration of SDE would cause high concentration of nalbuphine in the circulation and induce serious adverse effects.
# [4] = Adverse signs and mortality after SC administration of SDE; assay type: in vivo, mouse; settings: SC at 10 mL/kg
# Procedure: as §1
# [5] = system: substance P-induced scratching; assay: Mouse substance P-induced scratching model, topical application; assay type: in vivo; settings: 30 mg/kg, SC, 0.5 hour post treatment
# Procedure: Groups of 10 or 20 male ICR mice weighing 23±3 grams were used. One day before testing, hair was removed at the substance P injection sites. […] Substance P (250 nmol/site) was injected intradermally (ID) in a volume of 50 μL/site into the rostral portion of the back (the same region as test compound application). As reference, nalbuphine HCl was injected subcutaneously on the lower back region (different site as Substance P challenge). The scratching behavior was recorded for 30 minutes by visual observation immediately after substance P injection.
# The time-course and antipruritic effects of the Ointment formulations via topical application were investigated in the mouse substance P-induced scratching model according to Example 11. On the testing day, the tested formulations (TA-1, TA-2, TA-3, and TA-4) were applied topically on the rostral portion of the back (2×2 cm region) at 4 hours prior to substance P challenge. 15 male ICR mice were used for each group. As reference, nalbuphine HCl was injected subcutaneously on the lower back region (different site as Substance P challenge). The scratching behavior was recorded for 30 minutes by visual observation immediately after substance P injection.
# [6] = Whole blood concentration of nalbuphine after the scratching observation; assay type: in vivo; settings: ICR, mouse, subcutaneous, 30 mg/kg, SC at 0.5 hour, read-out: effective systemic concentration of nalbuphine (whole blood)
# Procedure: Immediately after the scratching observation of Example 11, whole blood was collected from each mouse via the vena cava, and the nalbuphine concentration in each sample was determined.
# Immediately after the scratching observation of Example 14, whole blood was collected from each mouse via the vena cava, and the nalbuphine concentration in each sample was determined.
# [7] = four ointment formulations of Table 13
smiles,measurement,setting,value
"O=C(CCCCCCCCC(=O)Oc1ccc2c3c1O[C@H]1[C@@H](O)CC[C@@]4(O)[C@@H](C2)N(CC2CCC2)CC[C@]314)Oc1ccc2c3c1O[C@H]1[C@@H](O)CC[C@@]4(O)[C@@H](C2)N(CC2CCC2)CC[C@]314 [SDE, Sebacoyl Dinalbuphine Ester]",SDE degradation,"[1]; combination of BHT with Transcutol P compared to Transcutol P alone, 50° C.",reduce the degree of SDE degradation
same,SDE purity (%),"[1]; in Castor oil, 50° C., 2 weeks",80.20%
same,SDE purity (%),"[1]; in Castor oil, 50° C., 4 weeks",75.71%
same,SDE purity (%),"[1]; in Castor oil, T = 0",100.00%
same,SDE purity (%),"[1]; in Diisopropyl adipate, 50° C., 2 weeks",99.60%
same,SDE purity (%),"[1]; in Diisopropyl adipate, 50° C., 4 weeks",99.49%
same,SDE purity (%),"[1]; in Diisopropyl adipate, T = 0",100.00%
same,SDE purity (%),"[1]; in Isopropyl myristate (IPM), 50° C., 2 weeks",99.51%
same,SDE purity (%),"[1]; in Isopropyl myristate (IPM), 50° C., 4 weeks",85.75%
same,SDE purity (%),"[1]; in Isopropyl myristate (IPM), T = 0",100.00%
same,SDE purity (%),"[1]; in Miglyol 810 (Caprylic/Capric triglyceride), 50° C., 2 weeks",99.66%
same,SDE purity (%),"[1]; in Miglyol 810 (Caprylic/Capric triglyceride), 50° C., 4 weeks",99.69%
same,SDE purity (%),"[1]; in Miglyol 810 (Caprylic/Capric triglyceride), T = 0",100.00%
same,SDE purity (%),"[1]; in PEG 400 (pH 4-5) + BHT, 50° C., 2 weeks",96.38%
same,SDE purity (%),"[1]; in PEG 400 (pH 4-5) + BHT, 50° C., 4 weeks",93.24%
same,SDE purity (%),"[1]; in PEG 400 (pH 4-5) + BHT, T = 0",98.31%
same,SDE purity (%),"[1]; in PEG 400 (pH 4-5), 50° C., 2 weeks",94.01%
same,SDE purity (%),"[1]; in PEG 400 (pH 4-5), 50° C., 4 weeks",96.97%
same,SDE purity (%),"[1]; in PEG 400 (pH 4-5), T = 0",100.00%
same,SDE purity (%),"[1]; in Super refined PEG 400 (pH 4-5), 50° C., 2 weeks",93.17%
same,SDE purity (%),"[1]; in Super refined PEG 400 (pH 4-5), 50° C., 4 weeks",92.23%
same,SDE purity (%),"[1]; in Super refined PEG 400 (pH 4-5), T = 0",100.00%
same,SDE purity (%),"[1]; in Transcutol P + BHT, 50° C., 2 weeks",14.65%
same,SDE purity (%),"[1]; in Transcutol P + BHT, 50° C., 4 weeks",4.21%
same,SDE purity (%),"[1]; in Transcutol P + BHT, T = 0",96.90%
same,SDE purity (%),"[1]; in Transcutol P, 50° C., 2 weeks",5.69%
same,SDE purity (%),"[1]; in Transcutol P, 50° C., 4 weeks",1.50%
same,SDE purity (%),"[1]; in Transcutol P, T = 0",94.31%
same,change of SDE purity,"[1]; in deionized water (at both pH 4 and 5) and Transcutol P, 50° C. for 2 and 4 weeks",Significant reductions
same,SDE purity (%),"[1]; in water (pH 4), 50° C., 2 weeks",28.91%
same,SDE purity (%),"[1]; in water (pH 4), 50° C., 4 weeks",14.47%
same,SDE purity (%),"[1]; in water (pH 4), T = 0",96.61%
same,SDE purity (%),"[1]; in water (pH 5), 50° C., 2 weeks",28.74%
same,SDE purity (%),"[1]; in water (pH 5), 50° C., 4 weeks",5.43%
same,SDE purity (%),"[1]; in water (pH 5), T = 0",96.83%
same,concentration of SDE in receiver fluid versus concentration of nalbuphine,[2]; [7],comparable
same,concentrations of SDE in dermis and epidermis versus concentrations of nalbuphine,[2]; [7],much greater
same,concentration of SDE in receiver fluid versus concentration of nalbuphine,[2]; ten formulations of Table 7,comparable
same,concentrations of SDE in dermis and epidermis versus concentrations of nalbuphine,[2]; ten formulations of Table 7,10 fold
same,suppressive effect on scratching responses,"[3]; SC at 10 mL/kg, 24 hours",45%
same,attenuation of scratching responses,"[3]; SC at 10 mL/kg, 48 hours",loss of activity
same,substance P-induced scratching bouts,[3]; 4 hours post treatment,18.8±11.8 bouts
same,substance P-induced scratching bouts,[3]; 12 hours post treatment,24.5±4.1 bouts
same,adverse signs observed,[4],"signs of depression, tremor and hypothermia"
same,mortality rate,[4]; 24 hours,7.7%
same,mortality rate,[4]; 48 hours,35.7%
Oc1ccc2c3c1O[C@H]1[C@@H](O)CC[C@@]4(O)[C@@H](C2)N(CC2CCC2)CC[C@]314 [nalbuphine HCl],substance P-evoked scratching behaviors,[5]; versus respective control (Example 11),significantly reduced
same,substance P-evoked scratching behaviors,[5]; versus respective control (Example 14),significantly reduced
same,concentration at 0.5 h,[6],~207 ng/mL
